The assay has as its target T1, Corticotropin-releasing factor-binding protein (Homo sapiens, UniProt P24387).
T1 sequence (P24387 whole entry): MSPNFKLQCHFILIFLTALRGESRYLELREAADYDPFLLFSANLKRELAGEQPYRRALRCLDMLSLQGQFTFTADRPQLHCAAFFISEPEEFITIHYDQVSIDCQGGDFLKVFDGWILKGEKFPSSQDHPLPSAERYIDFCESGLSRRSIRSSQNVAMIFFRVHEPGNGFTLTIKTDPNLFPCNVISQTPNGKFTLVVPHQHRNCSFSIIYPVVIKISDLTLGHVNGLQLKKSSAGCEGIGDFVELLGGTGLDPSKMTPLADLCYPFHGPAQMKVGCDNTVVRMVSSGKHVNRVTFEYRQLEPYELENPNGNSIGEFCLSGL
The assay is described as follows: activators of CRF receptor 2 with binding protein – uHTS hits, confirmation (AID 602473).

Each structure is given as a SMILES string.

We go through 53 molecules from BindingDB's records for doi:10.7270/Q2VX0F3D (Burnham Center For Chemical Genomics, 2012).

Regarding `COc1ccc(-c2ccc(C3c4c(n[nH]c4C)OC(=N)C3C#N)o2)cc1` (stereo not drawn) [6-amino-4-[5-(4-methoxyphenyl)-2-furanyl]-3-methyl-2,4-dihydropyrano[2,3-c]pyrazole-5-carbonitrile], a half-maximal effect (EC50) was put at 10.1 µM. As to `COc1ccc(C2=Nc3ncnn3C(c3ccco3)C2)cc1` (stereo not drawn) [7-(2-furanyl)-5-(4-methoxyphenyl)-1,7-dihydro-[1,2,4]triazolo[1,5-a]pyrimidine], the midpoint of the response, the EC50, lay at 4.53 µM. With `Fc1ccc(Br)cc1C1CC(c2ccc(Br)cc2)=Nc2ncnn21` (stereo not drawn) [7-(5-bromo-2-fluorophenyl)-5-(4-bromophenyl)-1,7-dihydro-[1,2,4]triazolo[1,5-a]pyrimidine], the EC50 (commonly the concentration at which the effect is half-maximal) is > 53 µM. As for `COc1ccc(C2=c3cc(F)ccc3=NC(c3ccco3)=NN2)cc1` [7-fluoranyl-2-(furan-2-yl)-5-(4-methoxyphenyl)-4H-1,3,4-benzotriazepine], the figure is > 53 µM; as for `N#CC(C(=O)c1cccc(F)c1)c1nc2ccccc2s1` (stereo not drawn) [(2Z)-2-(3H-1,3-benzothiazol-2-ylidene)-3-(3-fluorophenyl)-3-keto-propionitrile], > 53 µM. Molecule `N#CC(C(=O)Cc1cccc2ccccc12)c1nc2ccccc2s1` (stereo not drawn) [(2Z)-2-(3H-1,3-benzothiazol-2-ylidene)-4-naphthalen-1-yl-3-oxobutanenitrile] gave an EC50 of 3.14 µM. In the case of `N#CC(C1=NCCC1)c1nc2ccccc2c(=O)[nH]1` (stereo not drawn) [(2Z)-2-(4-oxo-1H-quinazolin-2-yl)-2-(2-pyrrolidinylidene)acetonitrile], the EC50 was > 53 µM. Consider `O=NC1C(=O)N(Cc2c(Cl)cccc2Cl)c2ccccc21` (stereo not drawn) [(3Z)-1-[(2,6-dichlorophenyl)methyl]-3-hydroxyimino-2-indolone], for which the EC50 amounted to 4.67 µM.

With `Cc1ccc2oc(=O)c(CC(=O)c3sc(C)nc3C)nc2c1` [(3Z)-3-[2-(2,4-dimethyl-1,3-thiazol-5-yl)-2-oxidanylidene-ethylidene]-6-methyl-4H-1,4-benzoxazin-2-one], the EC50 is 7.67 µM. With `Cc1ccc2oc(=O)c(CC(=O)c3ccco3)nc2c1` [(3Z)-3-[2-(2-furanyl)-2-oxoethylidene]-6-methyl-4H-1,4-benzoxazin-2-one], a half-maximal effect (EC50) was put at 4.74 µM.

`COc1ccc(C(=O)Cc2nc3ccccc3n(-c3ccccc3)c2=O)cc1` [(3Z)-3-[2-(4-methoxyphenyl)-2-oxidanylidene-ethylidene]-1-phenyl-4H-quinoxalin-2-one] gave an EC50 of 7.85 µM. For the molecule `Cc1ccc(C(=O)Cc2nc3ccccc3oc2=O)cc1` [(3Z)-3-[2-(4-methylphenyl)-2-oxidanylidene-ethylidene]-4H-1,4-benzoxazin-2-one], it took 11.4 µM to reach a half-maximal effect (EC50). Molecule `Cc1ccc2oc(=O)c(CC(=O)c3cccs3)nc2c1` [(3Z)-3-[2-keto-2-(2-thienyl)ethylidene]-6-methyl-4H-1,4-benzoxazin-2-one] registered an EC50 of 4.87 µM. The molecule `O=C(Cc1nc2ccccc2n(-c2ccccc2)c1=O)c1ccccc1` [(3Z)-3-phenacylidene-1-phenyl-4H-quinoxalin-2-one] returned an EC50 of 11.6 µM. As for `Cc1ccc2oc(=O)c(CC(=O)c3ccccc3)nc2c1` [(3Z)-6-methyl-3-(2-oxo-2-phenylethylidene)-3,4-dihydro-2H-1,4-benzoxazin-2-one], the figure is 12.1 µM; as for `CCOc1ccc(C2C(C(=O)c3ccc4c(c3)OCCO4)C(=O)C(=O)N2CCCN2CCOCC2)cc1` (stereo not drawn) [(4E)-4-[2,3-dihydro-1,4-benzodioxin-6-yl(oxidanyl)methylidene]-5-(4-ethoxyphenyl)-1-(3-morpholin-4-ylpropyl)pyrrolidine-2,3-dione], > 53 µM. As for `CCCCN1C(=O)NC(=O)C(C(=O)C=Cc2c[nH]c3ccccc23)C1=O` (stereo not drawn) [(5Z)-1-butyl-5-[(E)-3-(1H-indol-3-yl)-1-oxidanyl-prop-2-enylidene]-1,3-diazinane-2,4,6-trione], the figure is 6.02 µM; as for `O=CC(C=Nc1ccccn1)c1nc2cc(Cl)ccc2o1` (stereo not drawn) [(Z)-2-(5-chloranyl-1,3-benzoxazol-2-yl)-3-(pyridin-2-ylamino)prop-2-enal], > 53 µM; as for `N#CCSc1nnc(CNc2ccc(F)cc2)o1` [({5-[(4-fluoroanilino)methyl]-1,3,4-oxadiazol-2-yl}sulfanyl)acetonitrile], > 53 µM. On to `COc1ccc(C2=Nc3nnnn3C(c3cccc(OC)c3)C2)cc1` (stereo not drawn) [MLS000036434], for which the EC50 was > 53 µM. In the case of `CCOC(=O)C1=C(C)N=C(SCC(=O)OC)C(C#N)C1c1ccc(C(=O)OC)cc1` (stereo not drawn) [MLS000039154], the EC50 is > 53 µM. As to `C=CCOC(=O)C1C(C)=NC2(O)c3ccccc3C(=O)C12O` (stereo not drawn) [MLS000068305], the EC50 was > 53 µM. Consider `Cc1c(Cl)ccc2c1NC(=O)C21NC(CCC(N)=O)c2c1c(O)n(-c1ccc(Cl)cc1)c2O` (stereo not drawn) [MLS000083515], for which the EC50 was > 53 µM. For the molecule `CCCC(NCC(=O)O)=C1C(=O)CC(C)(C)C(C(=O)OC)C1=O` (stereo not drawn) [MLS000108316], the EC50 was > 53 µM. `CSc1nnc(C)c(CC=Nc2ccc(C)cc2)n1` [MLS000326071] registered an EC50 of 14.9 µM. As for `N#CC(C(=O)COC(=O)COc1cccc(Br)c1)c1nc2ccccc2[nH]1` (stereo not drawn) [MLS000391269], the figure is > 53 µM; as for `CC(=O)C1C(=O)C(=O)N(c2nccs2)C1c1ccccc1` (stereo not drawn) [MLS000533923], > 53 µM; as for `COC(=O)C1=C(C)N=C(C)C(C(=O)OC)C1/C=C/c1ccccc1` (stereo not drawn) [MLS000571366], > 53 µM. `COc1ccc(/C=N/OCC(=O)NNC2=c3cc(Br)ccc3=NC2=O)cc1` [MLS000587830]: the concentration for a half-maximal effect (EC50) is > 53 µM. As for `Nc1[nH]c(=O)sc1C=C1C=CC(=O)C=C1` [MLS000697264], the figure is > 53 µM; as for `CC1(C)CC(=O)C(=CNc2ccc(C(=O)c3ccccc3)cc2NC=C2C(=O)CC(C)(C)CC2=O)C(=O)C1` [MLS000724193], > 53 µM; as for `Cn1c(SCC(=O)N/N=C/C2C=C([N+](=O)[O-])C=CC2=O)nnc1-c1ccccc1` (stereo not drawn) [MLS000777077], > 53 µM. Turning to `Cc1cc(C)n(CCC(=O)NNC2=c3cc(Br)ccc3=NC2=O)n1` [MLS000777238], the EC50 was > 53 µM.

For `CC(=O)C1C(C)=NC(=S)NC1c1cc([N+](=O)[O-])ccc1O` (stereo not drawn) [MLS000777581], the EC50 is > 53 µM. The same measure for `O=C(Nn1c(O)csc1=S)c1cccnc1` [MLS000780148]: > 53 µM; for `COc1ccc(C(C)N=Nc2ccc([N+](=O)[O-])cc2S(=O)(=O)Nc2ccccc2C(=O)O)c(OC)c1` (stereo not drawn) [MLS002249507]: 38.6 µM; for `Cn1c(O)c(N=Nc2ccc([N+](=O)[O-])cc2)sc1=S` [MLS002608645]: 1.69 µM.

Consider `CN(C)c1ccc(C=Nn2c(O)csc2=S)c(Cl)c1` [MLS002919800], for which the EC50 was > 53 µM. The same measure for `Oc1csc(=S)n1N=Cc1c(F)cccc1Cl` [MLS002919802]: > 53 µM; for `Cc1cc2c(cc1Br)=NC(=O)C=2NNC(=O)C1CC1c1ccccc1` (stereo not drawn) [N'-(6-bromo-5-methyl-2-oxo-3-indolyl)-2-phenyl-1-cyclopropanecarbohydrazide]: > 53 µM; for `COc1ccccc1NS(=O)(=O)c1ccc(N=NCc2c(C)nn(-c3ccccc3)c2N2CCCC2)c([N+](=O)[O-])c1` [N-(2-methoxyphenyl)-4-[(2E)-2-[(3-methyl-1-phenyl-5-pyrrolidin-1-yl-pyrazol-4-yl)methylidene]hydrazinyl]-3-nitro-benzenesulfonamide]: > 53 µM. As for `Cc1noc(NS(=O)(=O)c2ccc(N=CCC(=O)c3cccc4ccccc34)cc2)c1C` [N-(3,4-dimethyl-1,2-oxazol-5-yl)-4-[[(Z)-3-naphthalen-1-yl-3-oxidanylidene-prop-1-enyl]amino]benzenesulfonamide], the EC50 was > 53 µM. Take `Cc1ccc(C)c2sc(NC(=O)c3ccc(-n4c(O)ccc4O)cc3)nc12` [N-(4,7-dimethyl-1,3-benzothiazol-2-yl)-4-(2,5-dioxopyrrolidin-1-yl)benzamide]: the EC50 was > 53 µM. For `CN1c2ccccc2C(=O)C(C(=S)Nc2ccc(Cl)cc2)S1(=O)=O` (stereo not drawn) [N-(4-chlorophenyl)-4-hydroxy-1-methyl-2,2-dioxo-1,2-dihydro-2lambda~6~,1-benzothiazine-3-carbothioamide], the EC50 is > 53 µM. Regarding `CCCCN(C(=O)c1ccc2c(c1)S(=O)(=O)NC1=CCCCCN12)c1c(N)n(CCCC)c(=O)[nH]c1=O` [N-(6-amino-1-butyl-2,4-dioxo-5-pyrimidinyl)-N-butyl-5,5-dioxo-8,9,10,11-tetrahydro-7H-azepino[2,1-c][1,2,4]benzothiadiazine-3-carboxamide], the EC50 was > 53 µM.

With `CCC(C)(C)NC(=O)C(c1ccccc1F)N(Cc1ccco1)C(=O)c1csnn1` (stereo not drawn) [N-[1-(2-fluorophenyl)-2-(2-methylbutan-2-ylamino)-2-oxoethyl]-N-(2-furanylmethyl)-4-thiadiazolecarboxamide], the EC50 is 15.6 µM. With `O=NCc1ccc(Oc2ccc(F)cc2)c([N+](=O)[O-])c1` [N-[[4-(4-fluorophenoxy)-3-nitrophenyl]methylidene]hydroxylamine], the EC50 was > 53 µM. `COC(=O)C1=Nc2nnnn2C(c2ccc(O)c(OC)c2)C1C(=O)c1ccccc1` (stereo not drawn) [SMR000020111]: the EC50 was > 53 µM.

As for `COc1ccc(C2=Nc3nnnn3C(c3ccc(C)cc3)C2)cc1` (stereo not drawn) [SMR000035317], the EC50 was > 53 µM.

For the molecule `CCc1ccccc1-n1c(O)c2c(c1O)CC(C)=C(C)C2` [SMR000104383], the EC50 was > 53 µM.

In the case of `CC(=CN=Nc1nc(C)cc(C)n1)Cc1ccc(C(C)C)cc1` [SMR000146220], the EC50 is > 53 µM. `Cc1[nH]c2ccccc2c1/C=C1\N=C(c2ccc(C(F)(F)F)cc2)OC1=O` [SMR000152363] yielded an EC50 of 10.2 µM. In the case of `Cc1ccc(-n2[nH]c(C)c(CN=Nc3ccc([N+](=O)[O-])cc3[N+](=O)[O-])c2=O)cc1` [SMR000171521], the concentration giving a half-maximal response (EC50) was > 53 µM.
